Measured values as given in patent US20210260036A1, “METHODS OF TREATMENT FOR ALPHA-1 ANTITRYPSIN DEFICIENCY” (Vertex Pharmaceuticals Incorporated, priority 2020, published 2021).

Legend:
healthy subjects = test: Phase 1 randomized, double-blinded, placebo-controlled single and multiple-dose study; assay type: in vivo, human; details: single and multiple doses
Excerpt: A randomized, double-blinded, placebo-controlled single and multiple-dose Phase I study evaluating Compound I has been completed in healthy subjects.

Z-AAT [1] = molecular target: T1, Z-AAT (Homo sapiens, UniProt P01009, E366K); test: Z-AAT folding, polymerization and secretion in cell line models; assay type: cell-based; details: multiple cell line models
Excerpt: (§1) 4-[5-(4-fluorophenyl)-6-tetrahydropyran-4-yl-1H-pyrrolo[2,3-f]indazol-7-yl]benzoic acid (Compound I), disclosed in PCT/US2020/032832, filed on May 14, 2020, is being developed as a treatment for AATD. […] Thus, Compound I has the potential to address both the loss-of-function and the gain-of-function aspects of the Z mutation. By restoring physiological levels of circulating AAT activity, Compound I may reduce the risk of lung disease. By preventing Z-polymer formation in the liver, Compound I may reduce the risk of developing progressive liver disease (fibrosis and cirrhosis).

Z-AAT [2] = molecular target: T1, Z-AAT; test: Z-AAT folding and secretion in transgenic mice expressing human Z-AAT; assay type: in vivo; parameters: expressed in transfected cells; host or cells: transgenic mice expressing human Z-AAT; details: transgenic mice engineered to express human Z-AAT
Excerpt: as §1

T1 sequence (P01009 25-418 E366K): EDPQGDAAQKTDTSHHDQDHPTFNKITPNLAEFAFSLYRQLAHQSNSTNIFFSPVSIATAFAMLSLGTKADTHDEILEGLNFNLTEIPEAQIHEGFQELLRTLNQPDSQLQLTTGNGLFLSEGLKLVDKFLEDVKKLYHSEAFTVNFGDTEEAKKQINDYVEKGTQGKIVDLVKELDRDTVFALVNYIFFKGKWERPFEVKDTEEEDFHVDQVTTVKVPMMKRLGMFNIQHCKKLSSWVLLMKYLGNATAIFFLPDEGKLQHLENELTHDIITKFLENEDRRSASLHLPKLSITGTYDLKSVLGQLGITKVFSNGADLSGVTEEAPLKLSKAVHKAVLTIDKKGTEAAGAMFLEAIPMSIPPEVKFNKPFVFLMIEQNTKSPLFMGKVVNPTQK

folding of Z-AAT (Z-AAT [1]): promotes the proper folding of Z-AAT
Structure (SMILES): O=C(O)c1ccc(-c2c(C3CCOCC3)n(-c3ccc(F)cc3)c3cc4cn[nH]c4cc23)cc1 [Compound I, 4-[5-(4-fluorophenyl)-6-tetrahydropyran-4-yl-1H-pyrrolo[2,3-f]indazol-7-yl]benzoic acid]
safety and tolerability (healthy subjects): safe and well-tolerated
serious adverse events (healthy subjects): no serious adverse events
intracellular Z-AAT protein polymerization (Z-AAT [1]): preventing intracellular Z-AAT protein polymerization
secretion of functionally active AAT (Z-AAT [1]): increasing secretion of functionally active AAT
folding and secretion of functionally active AAT (Z-AAT [2]): facilitates proper folding and secretion of functionally active AAT
